Experimental data: ChEMBL document CHEMBL3112580, “A new face for old antibiotics: tetracyclines in treatment of amyloidoses” (2013)

What was measured:
Mus musculus [1] = assay: Antiamyloidogenic activity in CMV-lambda6 mouse harboring human lambda LC protein at 0.5 mg/ml administered in drinking water for 3 to 6 months by Congo red staining-based microscopy; type: functional
Homo sapiens = species on record: Homo sapiens; assay: Antiprion activity at scrapie prion protein in human brain at 1 mM after 1 hr by Western blotting analysis; type: tissue-based
Mus musculus [2] = species on record: Mus musculus; assay: Antiamyloidogenic activity in R6/2 mouse Huntington's disease model assessed as increase in survival rate relative to control; type: functional
Mus musculus [3] = species on record: Mus musculus; assay: Antiamyloidogenic activity in mouse transfected with human amylin/amyloid polypeptide assessed as increase in survival time relative to control; type: functional

Question: Which Activity (Mus musculus [1]) does the source give for `C[C@H]1c2cccc(O)c2C(=O)C2=C(O)[C@]3(O)C(=O)C(C(N)=O)=C(O)[C@@H](N(C)C)[C@@H]3[C@@H](O)[C@@H]21.O` [DOXYCYCLINE] here?
Answer: 23%

Question: What about the Activity (Homo sapiens) of the same compound?
Answer: 80%

Question: For `CN(C)c1ccc(O)c2c1C[C@H]1C[C@H]3[C@H](N(C)C)C(O)=C(C(N)=O)C(=O)[C@@]3(O)C(O)=C1C2=O` [MINOCYCLINE], which Survival (Mus musculus [2]) is on record?
Answer: 14%

Question: For `CN(C)[C@@H]1C(O)=C(C(N)=O)C(=O)[C@@]2(O)C(O)=C3C(=O)c4c(O)cccc4[C@@](C)(O)[C@H]3C[C@@H]12` [TETRACYCLINE], which Survival (Mus musculus [3]) is on record?
Answer: 254%
